Experimental findings from patent US20230116972A1, “CD38 MODULATORS AND METHODS OF USE THEREOF” (Cytokinetics, Inc., priority 2021, published 2023) are described below.

Assay [1] has as its target T1, human CD38 (Homo sapiens, UniProt P28907).
T1 sequence (P28907 1-300): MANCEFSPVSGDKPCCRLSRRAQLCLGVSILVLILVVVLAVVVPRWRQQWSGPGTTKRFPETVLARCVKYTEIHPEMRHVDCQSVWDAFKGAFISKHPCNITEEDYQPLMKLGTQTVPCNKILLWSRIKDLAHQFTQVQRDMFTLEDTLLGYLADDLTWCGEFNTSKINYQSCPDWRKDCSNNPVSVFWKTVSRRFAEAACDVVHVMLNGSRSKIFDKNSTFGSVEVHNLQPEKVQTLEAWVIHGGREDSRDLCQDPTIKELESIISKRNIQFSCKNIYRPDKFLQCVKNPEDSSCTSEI
The experiment in a line: human recombinant CD38 enzyme assay (hydrolysis of NAD+). It is filed as biochemical. Conditions: human recombinant CD38, 0.4 nM enzyme, 62.5 μM NAD+; read-out: hCD38 BioChem IC50. The method in brief:
(§1)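 Residual substrate after a one-hour room-temperature incubation of recombinant CD38 with NAD+ and test compound is measured by an ADH/diaphorase coupled resorufin signal (540 nm excitation, 590 nm emission); reduced NAD+ consumption reflects inhibition.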

Assay [2] has as its target T2, mouse CD38 (Mus musculus, UniProt P56528).
T2 sequence (P56528 1-304): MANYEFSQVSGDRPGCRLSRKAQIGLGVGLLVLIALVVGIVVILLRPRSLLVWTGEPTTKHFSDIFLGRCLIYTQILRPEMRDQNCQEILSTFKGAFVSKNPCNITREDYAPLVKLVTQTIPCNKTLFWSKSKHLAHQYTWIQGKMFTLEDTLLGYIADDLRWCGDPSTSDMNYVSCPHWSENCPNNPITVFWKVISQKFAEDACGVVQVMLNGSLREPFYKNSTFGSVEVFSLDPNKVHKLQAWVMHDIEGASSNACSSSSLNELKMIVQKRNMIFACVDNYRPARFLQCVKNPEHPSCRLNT
The experiment in a line: mouse recombinant CD38 enzyme assay (hydrolysis of NAD+). Conditions: read-out: mCD38 BioChem IC50. It is filed as biochemical. A digest of the protocol:
as §1

Assay [3] deals with T3, endogenous CD38 in HL60 cells (Homo sapiens, UniProt P28907).
T3 construct: endogenous in cells; host or cells: HL60 (leukemic cells, treated with all-trans retinoic acid)
T3 sequence (P28907 1-300): T1 sequence (P28907 1-300)
Kind of assay: cellular CD38 assay in HL60 cells (cellular NAD levels). It is filed as cell-based. Conditions: all-trans retinoic acid, 24 hours, read-out: hCD38 HL60 ATRA NAD Cell Diaphorase IC50. The method, then:
The compounds described herein were also assayed for their ability to inhibit the endogenous CD38 in a native cellular environment in the cellular CD38 assay, which measures the ability of the compound to modulate cellular NAD levels. […] The assays were initiated by plating 20 μL of HL60 cells in culture medium, at a density of 20000 cells per well to a 384-well Corning™ Multiwell Plates. Compounds in DMSO were added to the plates in a volume of 120 nL using the Labcyte Echo Liquid Handlers. […] The plates are then incubated for 24 hours. 50 μL of a readout-solution containing 0.2 U/mL Diaphorase enzyme, 40 uM resazurin, 10 uM FMN, 0.8 U/mL Alcohol dehydrogenase, 3% ethanol, 0.4 mg/mL bovine serum albumin, 0.2% Triton X-100 in 100 mM Tris-HCl, 30 mM EDTA, pH 8.4. The plates were read for fluorescence (Excitation/Emission=540 nm/590 nm) using an EnVision plate reader after 60 mins of incubation at ambient temperature. Note that, in Table 5, the “Compound No” corresponds to the compound numbers in Table 1.

pIC50: −log10 of the molar value.

Usually pIC50 stands for the IC50 on a negative log10 scale, so that one unit is a factor of ten. `CCO[C@H]1C[C@H](NC(=O)c2nccc(-c3cncn3C)n2)C1` [Compound 299, N-((1r,3r)-3-ethoxycyclobutyl)-4-(1-methyl-1H-imidazol-5-yl)pyrimidine-2-carboxamide]: the values for the pIC50 in assay [1], in assay [2] and in assay [3] were 6.54, 7.13 and 5.39, respectively.

For the compound `Cn1cncc1-c1nc(C(=O)Nc2ccc(C(F)F)nc2)cc(C2CCC(F)(F)CC2)n1` [Compound 287, 6-(4,4-difluorocyclohexyl)-N-(6-(difluoromethyl)pyridin-3-yl)-2-(1-methyl-1H-imidazol-5-yl)pyrimidine-4-carboxamide], the pIC50 was 8.51 in assay [1], 9.15 in assay [2] and 6.05 in assay [3].

In the case of `COCCO[C@H]1CC[C@H](NC(=O)c2nc(C)cc(-c3cncn3C)n2)CC1` [Compound 232, N-((1r,4r)-4-(2-methoxyethoxy)cyclohexyl)-4-methyl-6-(1-methyl-1H-imidazol-5-yl)pyrimidine-2-carboxamide], the pIC50 was 7.27 in assay [1], 8.09 in assay [2] and 5.14 in assay [3].

On to `O=C(Nc1ccc(C(F)(F)F)nc1)c1nc(-n2ccnc2)ccc1F` [Compound 42, 3-fluoro-6-(1H-imidazol-1-yl)-N-(6-(trifluoromethyl)pyridin-3-yl)picolinamide], for which the pIC50 in assay [1] is 8.05; in assay [2], 8.10; in assay [3] it was 6.04.

Take `Cn1cncc1-c1cc(C2CC2)nc(C(=O)Nc2ccc(C(F)F)nc2)n1` [Compound 206, 4-cyclopropyl-N-(6-(difluoromethyl)pyridin-3-yl)-6-(1-methyl-1H-imidazol-5-yl)pyrimidine-2-carboxamide]: the negative-log IC50 (pIC50) in assay [1] was 8.41; in assay [2], 8.77; in assay [3], 6.24.

`Cc1cc(C(=O)Nc2ccc(C(F)(F)F)nc2)nc(-n2ccnc2)n1` [Compound 117, 2-(1H-imidazol-1-yl)-6-methyl-N-(6-(trifluoromethyl)pyridin-3-yl)pyrimidine-4-carboxamide]: the pIC50 was 8.40 in assay [1], 9.00 in assay [2] and 6.46 in assay [3].

In the case of `CCO[C@H]1CC[C@H](NC(=O)c2nccc(-c3cncn3C)n2)CC1` [Compound 255, N-((1r,4r)-4-ethoxycyclohexyl)-4-(1-methyl-1H-imidazol-5-yl)pyrimidine-2-carboxamide], the pIC50 is 7.15 in assay [1], 7.54 in assay [2] and 5.56 in assay [3].

For the compound `O=C(N[C@H]1C[C@@H](c2ccccc2)C1)c1nccc(-n2ccnc2)n1` [Compound 212, 4-(1H-imidazol-1-yl)-N-((1s,3s)-3-phenylcyclobutyl)pyrimidine-2-carboxamide], the pIC50 in assay [1] is 6.08; in assay [2] it was 6.98.

As for `O=C(Nc1ccc(C(F)(F)F)nc1)c1cccc(-c2cncs2)n1` [Compound 50, 6-(thiazol-5-yl)-N-(6-(trifluoromethyl)pyridin-3-yl)picolinamide], the pIC50 in assay [1] was 5.84; in assay [2], 6.07.

Take `Cc1cnc(-c2cncn2C)nc1C(=O)N[C@H]1CC[C@H](O)CC1` [Compound 321, 5-Methyl-2-(3-methylimidazol-4-yl)-N-[(1r,4r)-4-hydroxycyclohexyl]pyrimidine-4-carboxamide]: the pIC50 is 6.88 in assay [1] and 7.49 in assay [2].

With `CO[C@H]1CC[C@H](NC(=O)c2cc(O)nc(-n3ccnc3)n2)CC1` [Compound 126, 6-hydroxy-2-(1H-imidazol-1-yl)-N-((1r,4r)-4-methoxycyclohexyl)pyrimidine-4-carboxamide], the pIC50 in assay [1] was 6.08; in assay [2], 7.08.

Consider `CO[C@H]1C[C@H](NC(=O)c2nccc(-c3cncn3C)n2)C1` [Compound 297, N-((1r,3r)-3-methoxycyclobutyl)-4-(1-methyl-1H-imidazol-5-yl)pyrimidine-2-carboxamide], for which the negative-log IC50 (pIC50) in assay [1] was 6.38; in assay [2] it was 7.04.

Turning to `O=C(Nc1ccc(C(F)(F)F)nc1)c1cc(C2CC2)nc(-c2cncs2)n1` [Compound 109, 6-cyclopropyl-2-(thiazol-5-yl)-N-(6-(trifluoromethyl)pyridin-3-yl)pyrimidine-4-carboxamide], the pIC50 in assay [1] was 6.51; in assay [2], 7.18.

On to `Cn1cncc1-c1cc(C(F)F)nc(C(=O)N[C@H]2CC[C@H](O)CC2)n1` [Compound 347, 4-(difluoromethyl)-N-((1r,4r)-4-hydroxycyclohexyl)-6-(1-methyl-1H-imidazol-5-yl)pyrimidine-2-carboxamide], for which the pIC50 in assay [1] was 7.09; in assay [2] it was 8.21.

Take `Cn1cncc1-c1ccnc(C(=O)N[C@H]2CC[C@H](O)C2)n1` [Compound 305, N-((1S,3S)-3-hydroxycyclopentyl)-4-(1-methyl-1H-imidazol-5-yl)pyrimidine-2-carboxamide]: the values for the pIC50 in assay [1] and in assay [2] were 6.31 and 7.20, respectively.

`Cn1cncc1-c1ncc(Cl)c(C(=O)N[C@H]2CC[C@H](OC(F)F)CC2)n1` [Compound 323, 5-chloro-N-((1r,4r)-4-(difluoromethoxy)cyclohexyl)-2-(1-methyl-1H-imidazol-5-yl)pyrimidine-4-carboxamide]: the negative-log IC50 (pIC50) in assay [1] is 7.66; in assay [2] it was 7.97.

`O=C(Nc1ccc(C(F)F)nc1)c1nccc(-c2cncs2)n1` [Compound 150, N-(6-(difluoromethyl)pyridin-3-yl)-4-(thiazol-5-yl)pyrimidine-2-carboxamide]: the negative logarithm of the IC50 (pIC50) in assay [1] is 5.97; in assay [2] it was 5.30.

In the case of `CO[C@H]1CC[C@H](NC(=O)c2nc(-c3cncn3C)ncc2F)CC1` [Compound 333, 5-fluoro-N-((1r,4r)-4-methoxycyclohexyl)-2-(1-methyl-1H-imidazol-5-yl)pyrimidine-4-carboxamide], the pIC50 was 7.89 in assay [1] and 8.47 in assay [2].

Consider `O=C(NC1CC2(COC2)C1)c1nccc(-n2ccnc2)n1` [Compound 290, 4-(1H-imidazol-1-yl)-N-(2-oxaspiro[3.3]heptan-6-yl)pyrimidine-2-carboxamide], for which the negative logarithm of the IC50 (pIC50) is 5.91 in assay [1] and 6.72 in assay [2].

`COc1ccc(NC(=O)c2nccc(-c3cncn3C)n2)cn1` [Compound 356, N-(6-methoxypyridin-3-yl)-4-(1-methyl-1H-imidazol-5-yl)pyrimidine-2-carboxamide]: the pIC50 is 8.37 in assay [1] and 8.00 in assay [2].

`Cn1cncc1-c1nc(C(=O)Nc2ccc(C(F)F)nc2)cc(C2CCC2)n1` [Compound 183, 6-cyclobutyl-N-(6-(difluoromethyl)pyridin-3-yl)-2-(1-methyl-1H-imidazol-5-yl)pyrimidine-4-carboxamide]: the pIC50 is 8.15 in assay [1] and 8.70 in assay [2].

As for `Cn1cncc1-c1nc(C(=O)N[C@H]2CC[C@H](C(F)F)CC2)cc(C(C)(C)O)n1` [Compound 177, N-((1r,4r)-4-(difluoromethyl)cyclohexyl)-6-(2-hydroxypropan-2-yl)-2-(1-methyl-1H-imidazol-5-yl)pyrimidine-4-carboxamide], the pIC50 is 7.46 in assay [1] and 8.05 in assay [2].

As to `Cn1cncc1-c1nc(C(=O)Nc2ccc(OC(F)F)nc2)cc(C2CCC(F)(F)CC2)n1` [Compound 342, 6-(4,4-difluorocyclohexyl)-N-(6-(difluoromethoxy)pyridin-3-yl)-2-(1-methyl-1H-imidazol-5-yl)pyrimidine-4-carboxamide], the negative logarithm of the IC50 (pIC50) in assay [1] was 7.70; in assay [2], 8.54.

With `Cn1cncc1-c1ccnc(C(=O)N[C@@H]2CC[C@@H](O)C2)n1` [Compound 302, N-((1R,3R)-3-hydroxycyclopentyl)-4-(1-methyl-1H-imidazol-5-yl)pyrimidine-2-carboxamide], the pIC50 in assay [1] is 6.43; in assay [2], 6.93.
